# Marks after values point to notes of the source that are not given here. Starred links: 1 amine or outer side, 2 acyl side, 3 side chain; linkers in the order of their positions; H or OH if unused. Positions of bridges follow the written chain, without caps; N, C: chain ends. Non-standard residues stand in square brackets, D forms with d. Residues, ends and D or L forms follow the SMILES beside them. Chains are numbered I, II in the order given. Actinocin(9to1) = Cc1c2oc3c(C)ccc(C(=O)[*:1])c3nc-2c(C(=O)[*:2])c(N)c1=O; NMeV = CN[C@H](C(=O)O)C(C)C; Sar = CNCC(=O)O
# Legend:
# [1] = test system: glutathione peroxidase (GPx); assay: Glutathione peroxidase activity in lung tissue; format: in vivo, mouse; conditions: male BALB/c mice, Mean ± SD, same dosing groups
# catalase (CAT) = assay: Catalase activity in lung tissue; format: in vivo, mouse; conditions: male BALB/c mice, Mean ± SD, same dosing groups
# active caspase-3 = assay: Active caspase-3 immunoreactivity (labeling index) in alveolar area; format: in vivo, mouse; conditions: male BALB/c mice, active caspase-3 immunoreactive cells, teduglutide 200 μg/kg s.c. every 12 hours for 10 days, TNF-alpha 15 μg/kg i.p., Act D 800 μg/kg i.p.
# Description: (§1) In this study, 8-10 months male BALB/c mice were used. Mice were divided into 6 groups: • Group I (Control group): Mice injected with 0.1% dimethylsulfoxide (DMSO) and phosphate buffered saline (PBS, pH 7.4) via intraperitoneal way. • Group II: Mice injected with 15 μg/kg TNF-alpha (dissolved in PBS) with single dose via intraperitoneal way. • Group III: Mice injected with 800 μg/kg Act D (dissolved in DMSO) with single dose via intraperitoneal way. • Group IV: The mice given with TNF-alpha 2 minutes after Act D is administered in doses and mode of administrations above. • Group V: The mice given with 200 μg/kg teduglutide (dissolved in PBS) for 10 days uninterruptedly in every 12 hours via subcutaneous injection. • Group VI: TNF-alpha was injected to mice to which teduglutide was administered for 10 days as mentioned above, 2 minutes after Act D was administered in 11th day in above doses and mode of administration.
# (§2) The mice in Group V were cut with cervical dislocation 16.5 hours after the last administration, and the mice in other groups were cut 4.5 hours after the last administration, and the lung samples were taken for microscopic and biochemical analysis.
# For the identification of apoptosis in the tissue, as another way, active caspase-3 immunoreactivity was tested. For this purpose, streptavidin-biotin-peroxidase immune method was used. Sections of left lung fixed with neutral formalin were treated with 0.3% triton X-100 for 10 minutes after dewaxing and rehydratation. Following this process, they heated in 10 mM citrate buffer (pH 6.0) for 15 min in a microwave oven. The sections were incubated for 10 minutes with 3% H2O2 for blocking of endogenous peroxidase activity. The next steps were performed according to the instructions in Histostain Plus Broad Spectrum Kit (Invitrogen). The sections were incubated with polyclonal rabbit active caspase 3 antibody (1:50 in PBS, Millipore) for 1 hour at room temperature.
# Immunoreaction was developed with 3-amino-9-ethylcarbazole. The sections were stained with Mayer's hematoxilin following immunostaining. PBS or nonspecific rabbit IgG primary antibody were used as negative controls.
# Quantitative analysis of immunoreactive cells labeled with caspase-3 antibody was made with light microscope at ×400 magnification. For the immunoreactive cell count, 5 randomly selected fields of alveolar areas without bronchioles were examined in the lung sections of each mouse. The labeling index for caspase-3 was calculated as a percentage of immunoreactive cells in the total number of cells counted per section.
# [2] = test system: superoxide dismutase (SOD); assay: Superoxide dismutase activity in lung tissue; format: in vivo, mouse; conditions: male BALB/c mice, Mean ± SD, same dosing groups
# Na^+K^+ATPase = assay: Na+K+ATPase activity in lung tissue; format: in vivo, mouse; conditions: male BALB/c mice, Mean ± SD, same dosing groups
# tissue factor (TF) = assay: Tissue factor activity in lung tissue (Quick's one-stage method); format: in vivo, mouse; conditions: male BALB/c mice, Mean ± SD, Quick's one-stage method using normal plasma, same dosing groups
# [3] = test system: apoptotic cells in the lung (alveolar areas); assay: TUNEL apoptotic index in alveolar area of lung; format: in vivo, mouse; conditions: male BALB/c mice, teduglutide 200 μg/kg s.c. every 12 hours for 10 days, TNF-alpha 15 μg/kg i.p., Act D 800 μg/kg i.p.
# Description: as §1, §2
# TUNEL (Terminal deoxynucleotidyl transferase-mediated dUTP-nick end labeling assay) method was used to identify apoptotic cells in the lung. In this method, left lung sections fixed with 10% neutral formalin for 24 hours were used. Lung sections in thickness of 5 μm were treated with proteinase K (20 ug/ml) following rehydratation, and then endogenous peroxidase activity was blocked with 3% H2O2.
# Marking step was carried out with commercially available ApopTag Plus Peroxidase kit (Millipore). The reaction in apoptotic cells was developed with […]. Following this process, cell nuclei were made visible in staining with methylene green. Mice breast tissue was used as positive control. […] TUNEL positive cells in the lung were analyzed under light microscope at 400× magnification. The apoptotic index value was calculated as a percentage of apoptotic cells in total number of cells.
# [4] = test system: alveolar wall of mice lung; assay: Hematoxylin-eosin histology of lung sections (alveolar wall damage); format: in vivo, mouse; conditions: HE-stained lung sections, male BALB/c mice; same dosing groups
# Description: TNF-alpha and/or Act D was administered to mice in the experiments. Act D is used in order to increase the cytotoxic effect of TNF-alpha in lung tissues. In this way, pulmonary epithelial, endothelial and mesenchymal cells were damaged in mouse lung by stimulating apoptosis, inflammation and oxidative stress. TNF-alpha. Act D and especially the combination of TNF-alpha/Act D cause the damage in alveolar wall of mice lung; it reduces the tissue factor (TF) and sodium-potassium ATPase (Na-K-ATPase) activities while stimulating apoptosis in pulmonary endotheliaL % epithelial cells, myeloperoxidase (MPO) activity in tissue and oxidative stress.
# (§3) In this study, 8-10 months male BALB/c mice were used. […]
# [5] = test system: patients having intestinal damage with short bowel syndrome; conditions: cited from earlier work
# GSH (glutathione) = assay: GSH level in lung homogenate (Beutler method); format: in vivo, mouse; conditions: lung tissue, male BALB/c mice, Mean ± SD, same dosing groups
# type II pneumocytes = assay: Type II pneumocyte count (Pro-SPC immunostaining) in alveolar epithelium; format: in vivo, mouse; conditions: male BALB/c mice, Pro-SPC immunoreactive cells in total number of cells, same dosing groups
# Description: as §3
# Strep-ABC immunostaining method was used in order to determine proliferative cells in the alveolar area. […] Furthermore, since it is known that type II pneumocytes give new ones to replace type I and type II pneumocytes which die or lose function in the damaged alveolar epithelium, the number of type II pneumocytes in the alveolar area were analyzed in the experimental groups. […] Proliferation index and number of type II pneumocytes in the alveolar area were calculated as ratio of immunoreactive cells in total number of cells, and the value was expressed as %. […]
# [6] = test system: patients with short bowel syndrome; conditions: s.c. 0.05 or 0.10 mg/kg/day; cited from earlier work
# myeloperoxidase (MPO) = assay: Myeloperoxidase activity in lung tissue; format: in vivo, mouse; conditions: male BALB/c mice, Mean ± SD, same dosing groups
# xanthine oxidase (XO) = assay: Xanthine oxidase activity in lung tissue; format: in vivo, mouse; conditions: male BALB/c mice, Mean ± SD, same dosing groups
# lipid peroxidation (LPO) = assay: Lipid peroxidation (LPO) level in lung homogenate; format: in vivo, mouse; conditions: lung tissue, male BALB/c mice, Mean ± SD, same dosing groups
# [7] = test system: patients with short bowel syndrome; conditions: 11 patients with short bowel syndrome, s.c. 0.4 mg 3 times a day, 13, 26, 52 weeks; cited from earlier work
# [8] = humans, short bowel syndrome, teduglutide s.c. 0.05 or 0.10 mg/kg/day, 52 weeks
Compound,GPx [1],CAT (catalase (CAT)),caspase-3 index in alveolar areas in mice (active caspase-3) [%],SOD [2],Na^+K^+ATPase (Na^+K^+ATPase),TF (tissue factor (TF)),apoptotic index in alveolar areas in mice [3],GSH (GSH (glutathione)),LPO (lipid peroxidation (LPO)),further results
"Cc1c2oc3c(C)ccc(C(=O)N[C@@H]4C(=O)N[C@H](C(C)C)C(=O)N5CCC[C@H]5C(=O)N(C)CC(=O)N(C)[C@@H](C(C)C)C(=O)O[C@@H]4C)c3nc-2c(C(=O)N[C@@H]2C(=O)N[C@H](C(C)C)C(=O)N3CCC[C@H]3C(=O)N(C)CC(=O)N(C)[C@@H](C(C)C)C(=O)O[C@@H]2C)c(N)c1=O [Act D, Actinomycin D] (I: T[dV]P[Sar][NMeV] / II: T[dV]P[Sar][NMeV]; ester I:1-I:C, II:1-II:C; linker I:N-II:N via Actinocin(9to1))",473.28 ± 78.26^c U/g protein,29.76 ± 4.34^b U/mg protein,0.02±0.005,8.21 ± 2.29^g U/mg protein,3.63 ± 1.13^a nmol Pi/mg protein/h,50.50 ± 8.06^d sec,,,,
CC[C@H](C)[C@H](NC(=O)[C@H](Cc1ccccc1)NC(=O)[C@H](CC(=O)O)NC(=O)[C@H](CCCNC(=N)N)NC(=O)[C@H](C)NC(=O)[C@H](C)NC(=O)[C@H](CC(C)C)NC(=O)[C@H](CC(N)=O)NC(=O)[C@H](CC(=O)O)NC(=O)[C@H](CC(C)C)NC(=O)[C@@H](NC(=O)[C@@H](NC(=O)[C@H](CC(N)=O)NC(=O)[C@H](CCSC)NC(=O)[C@H](CCC(=O)O)NC(=O)[C@H](CC(=O)O)NC(=O)[C@H](CO)NC(=O)[C@H](Cc1ccccc1)NC(=O)[C@H](CO)NC(=O)CNC(=O)[C@H](CC(=O)O)NC(=O)CNC(=O)[C@@H](N)Cc1c[nH]cn1)[C@@H](C)O)[C@@H](C)CC)C(=O)N[C@@H](CC(N)=O)C(=O)N[C@@H](Cc1c[nH]c2ccccc12)C(=O)N[C@@H](CC(C)C)C(=O)N[C@H](C(=O)N[C@@H](CCC(N)=O)C(=O)N[C@H](C(=O)N[C@@H](CCCCN)C(=O)N[C@H](C(=O)N[C@H](C(=O)N[C@@H](CC(=O)O)C(=O)O)[C@@H](C)O)[C@@H](C)CC)[C@@H](C)O)[C@@H](C)CC [Teduglutide],491.56 ± 171.49^b U/g protein,44.74 ± 7.52^d U/mg protein,0.00±0.00,7.36 ± 1.28^c U/mg protein,6.46 ± 1.13^a nmol Pi/mg protein/h,increases the TF activity,no significant change in apoptotic index,43.67 ± 8.25^c nmol GSH/mg protein,5.31 ± 1.71^b nmol MDA/mg protein,"structure of alveolar wall / alveolar epithelium under light microscope [4]: alveoli were in better condition; reliability of long term use ([5]; 52 patients, s.c. 0.05 or 0.10 mg/kg/day for 52 weeks): reliable for long term use in humans; adverse effect: abdominal pain [5, 8]: 25%; adverse effect: headache [5, 8]: 35%; adverse effect: nausea [5, 8]: 31%; caspase-3 index in alveolar areas in mice (active caspase-3; listed as teduglutide): decreased significantly in individuals previously treated with teduglutide to which TNF-alpha/Act D was administered; GSH (GSH (glutathione); listed as teduglutide): increased significantly; type II pneumocytes in alveolar epithelium of mouse lung (type II pneumocytes): 16.65±1.13%; type II pneumocytes in alveolar epithelium of mouse lung (type II pneumocytes; listed as teduglutide): significant decrease in type II pneumocyte number; liver function tests (AST, ALT, ALP) and renal function tests (creatinine, urea, bilirubin, glomerular filtration speed) [6]: improvement in liver function tests; MPO (myeloperoxidase (MPO)): 88.93 ± 30.32^g mU/g tissue; XO (xanthine oxidase (XO); listed as Tedoglutide): 17.46 ± 3.16^a U/mg protein; TF (tissue factor (TF); listed as Tedoglutide): 47.28 ± 9.91^d sec"
TNF-α,453.86 ± 52.35^c U/g protein,42.44 ± 5.79^a U/mg protein,0.08±0.005,6.99 ± 2.57^f U/mg protein,3.96 ± 0.71^a nmol Pi/mg protein/h,49.08 ± 10.40^d sec,0.41±0.04%,10.16 ± 2.66^a nmol GSH/mg protein,4.51 ± 0.50^b nmol MDA/mg protein,apoptotic index in alveolar areas in mice ([3]; listed as TNF-alpha): no significant change in apoptotic index; GSH (GSH (glutathione); listed as TNF-alpha): increased significantly; MPO (myeloperoxidase (MPO); listed as TKF-α): 193.80 ± 31.28^c mU/g tissue; MPO (myeloperoxidase (MPO); listed as TNF-alpha): increased significantly; XO (xanthine oxidase (XO)): 21.53 ± 3.28^a U/mg protein; XO (xanthine oxidase (XO); listed as TNF-alpha): increased significantly; LPO (lipid peroxidation (LPO); listed as TNF-alpha): increased significantly
"human GLP-2: Human glucagon like peptide 2, 33 amino acid sequence (SEQUENCE ID No. 1) (HADGSFSDEMNTILDNLAARDFINWLIQTKIT; listed as Homo sapiens)",,,,,,,,,,"intestinal morphology, absorption, renal functions, bone mineral density and muscle functions [7]: does not change"

# — patent US20150038674A1, “USE OF GLP-2 ANALOGUES IN PULMONARY DISEASES FOR THERAPEUTIC PURPOSE” (priority 2013, published 2015)
